According to patent US7452865B2, “Antagonistic analogs of GH RH (2003)” (The Administrare's of the Tulane Educational Fund, priority 2004, dated 2008):
Marks after values point to notes of the source that are not given here. Square brackets hold non-standard residues; d marks the D form. Peptide text beside a SMILES is read from it. * marks the point of attachment. Phe(4-amidino) = N=C(N)c1ccc(C[C@H](N)C(=O)O)cc1; Phe(4-Cl) = N[C@@H](Cc1ccc(Cl)cc1)C(=O)O; hArg = N=C(N)NCCCC[C@H](N)C(=O)O; Nle = CCCC[C@H](N)C(=O)O; Abu = CC[C@H](N)C(=O)O; PhAc = O=C(Cc1ccccc1)*

How the values were obtained:
pituitary = conditions: cited from earlier work
[1] = system: hGH-RH(1-29)NH2 induced GH release; assay: Inhibition of GH release in superfused rat pituitary system; type: cell-based
Procedure, shortened: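 GH output was quantified by double-antibody RIA in superfusates of rat pituitary cells. Peptides were applied for 9 min at various concentrations before a 3-min 1 nM hGH-RH(1-29)NH2 pulse, with further pulses 30–120 min later; net integral responses given as percent of the original response.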

IGF-I [2] = assay: PC-3 xenografts, Experiment 1: serum IGF-I (RIA); type: in vivo, nude mice; conditions: 10 μg/day s.c., 28 days
Excerpt: (§1) For the measurement of GH and IGF-I levels in the serum, as well as IGF-I and IGF-II concentrations in the cytosol fraction of tumors, blood samples and tumor samples were collected and processed as described (Braczkowski R, Schally A V, Plonowski A, Varga J L, Groot K, Krupa M, Armatis P, Cancer 95: 1735-1745, 2002), hereby incorporated by reference. Briefly, blood samples are centrifuged to separate the serum, tumors are homogenized and centrifuged to separate the cytosol fraction. Serum GH is then measured by the double-antibody RIA method. Before measurement by RIA, IGF-I and IGF-II are extracted from serum and cytosol fractions using an acid-ethanol cryoprecipitation method that eliminates most of the IGF binding proteins, which can interfere with the RIA. IGF-I concentration is measured by RIA using IGF-I as a standard and goat anti-IGF-I antibody (both from DSL Inc., Webster, Tex.). IGF-II concentration is measured by RIA using human recombinant IGF-II (Bachem) as a standard and anti-IGF-II monoclonal antibody (Amano International Enzyme, Troy, Va.).
(§2) Male nude mice were implanted s.c. with 3 mm^3 pieces of PC-3 human hormone-independent prostate cancer tissue on both flanks. When tumors reached a volume of approx. 50 mm^3, the mice were divided into 5 experimental groups with 7 to 8 animals in each group and received single daily injections for 28 days as follows: 1. Control (vehicle solution); 2. JV-1-38 (10 μg/day s.c.); 3 Peptide 31 (10 μg/day s.c.); 4. Peptide 67 (10 μg/day s.c.); 5. Peptide 62 (10 μg/day s.c.). Tumor volumes were measured twice a week. The experiment was ended on day 29 by sacrificing the mice under Isoflurane anesthesia. Resulting tumors were cleaned, weighed, and snap-frozen until further analyses. Trunk blood was collected from the abdominal aorta and serum was separated for RIA measurement of IGF-I. Statistical analyses of the measurement results were done by two-tailed t-test; data are presented as the means±S.E.

[3] = system: H-69 human SCLC xenografts; assay: H-69 human SCLC xenografts in nude mice: tumor growth; type: in vivo; conditions: H-69
Protocol: Male nude mice were implanted s.c. with 3 mm^3 pieces of H-69 human SCLC tissue. When tumors reached a volume of approx. 80 mm^3 the mice were divided into 4 experimental groups of 7-8 animals each and received the following treatment for 4 weeks: group I (control), vehicle solution; group 2, Peptide 67 (10 μg/day s.c.); group 3, Peptide 31 (10 μg/day s.c.); group 4, Peptide 72 (10 μg/day s.c.). Tumor volumes were recorded twice a week. At the end of treatment, mice were anesthetized with isoflurane, killed by decapitation, and tumors were excised and weighed. Data are presented as means±S.E. Data were evaluated by one way ANOVA and the Student-Newman-Keuls test.

[4] = system: DMS-153 human SCLC xenografts; assay: DMS-153 human SCLC xenografts in nude mice: tumor growth; type: in vivo
Protocol: (§3) Male nude mice were implanted s.c. with 3 mm^3 pieces of DMS-153 human SCLC tissue. When tumors reached a volume of approx. 100 mm^3 the mice were divided into 3 experimental groups of 68 animals each and received the following treatment for 6 weeks group 1 (control), vehicle solution; group 2, Peptide 67 (10 μg/day s.c.); group 3, Peptide 31 (10 μg/day s.c.). Tumor volumes were recorded twice a week. At the end of treatment, mice were anesthetized with isoflurane, killed by decapitation, trunk blood was collected for measurement of serum IGF-I, and tumors were excised and weighed. Data are presented as means±S.E. Data were evaluated by one way ANOVA and the Student-Newman-Keuls test.

mRNA for IGF-II = assay: DMS-153 human SCLC xenografts: expression of mRNA for IGF-II; type: in vivo, nude mice; conditions: 10 μg/day s.c., 6 weeks, control group 100±1.5%
Protocol: as §3

IGF-I [5] = assay: DMS-153 human SCLC xenografts: serum IGF-I; type: in vivo, nude mice; conditions: 10 μg/day s.c., 6 weeks
Excerpt: as §1, §3

IGF-II = assay: PC-3 xenografts, Experiment 1: tumor IGF-II (RIA); type: in vivo, nude mice; conditions: 10 μg/day s.c., 28 days
Excerpt: as §1, §2

[6] = system: PC-3 human prostate cancer xenografts; assay: PC-3 xenografts in nude mice, Experiment 1: tumor growth; type: in vivo
Protocol: as §2

[7] = 10 μg/day s.c., 6 weeks, vs control
[8] = 10 μg/day s.c., 28 days, vs control

Tyr-Ala-Asp-Ala-Ile^5-Phe-Thr-Asn-Ser-Tyr^10-Arg-Lys-Val-Leu-Gly^15-Gln-Leu-Ser-Ala-Arg^20-Lys-Leu-Leu-Gln-Asp^25-Ile-Met-Ser-Arg^29-NH2 [GH-RH(1-29)]
potency retained relative to native GH-RH (pituitary): ≥ 50%

CCCC[C@H](NC(=O)[C@@H](NC(=O)[C@H](CC(=O)O)NC(=O)[C@H](CCC(N)=O)NC(=O)[C@H](CC(C)C)NC(=O)[C@H](CC(C)C)NC(=O)[C@H](CCCCN)NC(=O)[C@H](CCCNC(=N)N)NC(=O)[C@H](C)NC(=O)[C@H](CO)NC(=O)[C@H](CC(C)C)NC(=O)[C@H](CCC(N)=O)NC(=O)[C@H](CC)NC(=O)[C@H](CC(C)C)NC(=O)[C@@H](NC(=O)[C@H](CCCCN)NC(=O)[C@H](CCCNC(=N)N)NC(=O)[C@H](Cc1ccc(C(=N)N)cc1)NC(=O)[C@H](CCCCNC(=N)N)NC(=O)[C@H](CC(N)=O)NC(=O)[C@@H](NC(=O)[C@H](Cc1ccc(Cl)cc1)NC(=O)[C@@H](NC(=O)[C@H](C)NC(=O)[C@H](CC(=O)O)NC(=O)[C@@H](CCCNC(=N)N)NC(=O)[C@H](Cc1ccc(O)cc1)NC(=O)Cc1ccccc1)[C@@H](C)CC)[C@@H](C)O)C(C)C)[C@@H](C)CC)C(=O)N[C@H](CCCNC(=N)N)C(=O)N[C@@H](CCCCNC(=N)N)C(N)=O [Peptide 31, [PhAc-Tyr^1, D-Arg^2, Phe(pCl)^6, Har^9, Amp^10, Abu^15, Nle^27, D-Arg^28, Har^29]hGH-RH(1-29)NH2] (PhAc-Y[dR]DAI[Phe(4-Cl)]TN[hArg][Phe(4-amidino)]RKVL[Abu]QLSARKLLQDI[Nle][dR][hArg]-NH2)
GH response (% of control) 0 min ([1]; antagonist 10 nM, 0 min): 57 % of control | GH response (% of control) 30 min ([1]; antagonist 10 nM, 30 min): 31 % of control | GH response (% of control) 60 min ([1]; antagonist 10 nM, 60 min): 37 % of control | GH response (% of control) 90 min ([1]; antagonist 10 nM, 90 min): 36 % of control | GH response (% of control) 120 min ([1]; antagonist 10 nM, 120 min): 37 % of control | GH response (% of control) 0 min ([1]; antagonist 30 nM, 1 nM hGH-RH(1-29)NH2 at 0 min): 7 % of control | GH response (% of control) 30 min ([1]; antagonist 30 nM, 1 nM hGH-RH(1-29)NH2 at 30 min): 1 % of control | GH response (% of control) 60 min ([1]; antagonist 30 nM, 1 nM hGH-RH(1-29)NH2 at 60 min): 2 % of control | GH response (% of control) 90 min ([1]; antagonist 30 nM, 1 nM hGH-RH(1-29)NH2 at 90 min): 4 % of control | GH response (% of control) 120 min ([1]; antagonist 30 nM, 1 nM hGH-RH(1-29)NH2 at 120 min): 3 % of control | endocrine antagonistic potency: inhibition of the GH release stimulated by hGH-RH(1-29)NH2 (in words) ([1]; general statement, in vitro and in vivo): high endocrine antagonistic potencies | Serum IGF-I (IGF-I [2]): 133 ± 16.7 ng/mL | Serum IGF-I (% inhibition) (IGF-I [2]; vs control): (11%) | Tumor volume (mm^3) Final ([3]; 10 μg/day s.c., 4 weeks): 832 ± 23* mm^3 | Tumor volume Final (% inhibition) ([3]; 10 μg/day s.c., 4 weeks, vs control): (67%) | Tumor volume (mm^3) Initial ([3]; at start of treatment): 80 ± 6 mm^3 | Tumor volume (mm^3) Final ([4]; 10 μg/day s.c., 6 weeks): 3329 ± 180 mm^3 | Tumor weight ([4]; 10 μg/day s.c., 6 weeks): 1.58 ± 0.11 g | Tumor volume Final (% inhibition) [4, 7]: (10%) | Tumor weight (% inhibition) [4, 7]: (32%) | Tumor volume (mm^3) Initial ([4]; at start of treatment): 138 ± 20 mm^3 | level of expression of mRNA for IGF-II (mRNA for IGF-II): 42.7±18.5% | Serum IGF-I (IGF-I [5]): 118.4 ± 12.5 ng/mL | Serum IGF-I (% inhibition) (IGF-I [5]; vs control): (30%) | Tumor IGF-II (pg/mg protein) (IGF-II): 130 ± 56.0 pg/mg protein | Tumor IGF-II (% inhibition) (IGF-II; vs control): (41%) | Tumor volume (mm^3) Final ([6]; 10 μg/day s.c., 28 days): 363 ± 92.8 mm^3 | Tumor volume doubling time ([6]; 10 μg/day s.c., 28 days): 14.0 ± 2.69 days | Tumor weight ([6]; 10 μg/day s.c., 28 days): 237 ± 53.3 mg | Tumor volume Final (% inhibition) [6, 8]: (28%) | Tumor weight (% inhibition) [6, 8]: (37%) | Tumor volume (mm^3) Initial ([6]; at start of treatment): 49.1 ± 12.5 mm^3
